From patent US11312719B2, “9-substituted amino triazolo quinazoline derivatives as adenosine receptor antagonists, pharmaceutical compositions and their use” (Merck Sharp & Dohme Corp., priority 2018, dated 2022)

Experiments:
[1] = molecular target: human A2A receptors (Homo sapiens (Human), UniProt P29274); assay: A2A antagonism in cAMP cell-based assay (LANCE cAMP, HEK293); settings: HEK293 cells expressing human A2A receptor
Method: (§1) Measurement of A2A and A2B Antagonism in cAMP Cell-Based Assay
(§2) The ability of compounds to antagonize human A2A and A2B adenosine receptors was determined using a kit to measure changes in intracellular cyclic AMP levels (LANCE cAMP 384 Kit, Perkin Elmer, Cat. No. AD0264). HEK293 cells recombinantly expressing either human A2A or A2B receptors, previously frozen in Recovery Medium (Life Technologies, Cat. No. 12648-010) were thawed and diluted into stimulation buffer (HBSS (Hyclone SH 30268.01), 5 mM HEPES (Gibco 15630-106), 200 nM rolipram (Tocris, Cat. No. 0905), and 1.5% (V/v) BSA stabilizer (kit component). The cell suspension was centrifuged at 200×g for 10 min and then resuspended in stimulation buffer, supplemented with a 1:10 000 dilution of Alexa Fluor 647 anti-cAMP antibody, to a density of 6.0×10^5 cells/mL. A Labcyte Echo 550 acoustic dispenser was used to transfer up to 25 nL of test compound dissolved in DMSO into the wells of a dry Optiplate-384 plate (Perkin Elmer, Cat. No. 6008289). All subsequent liquid additions were performed using a multichannel pipettor. Next, 5 μL of the cell suspension was added to the wells of the Optiplate-384 and incubated for 30 min. at 37° C. and 5% CO2 in a humidified environment. After this time 5 μL of either 300 nM or 600 nM adenosine (Sigma Cat. No. A9251) for A2A and A2B respectively was added and incubated for 30 minutes at 37° C. and 5% CO2 in a humidified environment. At this time detection mix was prepared by combining the LANCE Eu-W8044 labeled streptavidin and Biotin-cAMP in detection buffer according to the manufacturers protocol. 10 μL of the detection mix was added to each well of the Optiplate-384 which was covered with a plate seal and incubated under ambient conditions for 2 hours prior to reading the plate using an Envision (Perkin Elmer, Waltham, Mass.) multimode plate reader. Data was normalized by defining minimal effect as stimulation in the presence of 0.25% (v/v) DMSO and maximal effect as stimulation in the presence of 1 μM ZM241385 (Cayman, Cat. No. 1036). Curve fitting of the percent effect data versus the log of compound concentration used a 4-parameter concentration response curve fitting algorithm to calculate IC50 values. Compound concentrations tested were 10,000, 3,333, 1,111, 370.4, 123.4, 41.2, 13.7, 4.6, 1.5 and 0.5 nM with 0.25% residual DMSO.

[2] = molecular target: human A2B receptors (Homo sapiens (Human), UniProt P29275); assay: A2B antagonism in cAMP cell-based assay (LANCE cAMP, HEK293); settings: HEK293 cells expressing human A2B receptor; for A2B cAMP % Inh. @10000 nM: at 10000 nM
Method: as §1, §2

Chain of human A2A receptors (P29274 whole entry): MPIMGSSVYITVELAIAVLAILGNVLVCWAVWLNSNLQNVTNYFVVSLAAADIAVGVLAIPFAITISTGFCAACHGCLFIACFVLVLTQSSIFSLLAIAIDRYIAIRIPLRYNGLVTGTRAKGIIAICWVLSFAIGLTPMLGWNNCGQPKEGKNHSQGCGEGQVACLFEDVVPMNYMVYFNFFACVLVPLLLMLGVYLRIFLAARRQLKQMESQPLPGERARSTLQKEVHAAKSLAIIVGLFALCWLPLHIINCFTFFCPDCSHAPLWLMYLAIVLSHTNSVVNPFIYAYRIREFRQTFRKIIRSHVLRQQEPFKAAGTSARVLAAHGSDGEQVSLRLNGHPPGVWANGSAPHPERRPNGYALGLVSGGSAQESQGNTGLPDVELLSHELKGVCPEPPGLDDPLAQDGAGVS
Chain of human A2B receptors (P29275 whole entry): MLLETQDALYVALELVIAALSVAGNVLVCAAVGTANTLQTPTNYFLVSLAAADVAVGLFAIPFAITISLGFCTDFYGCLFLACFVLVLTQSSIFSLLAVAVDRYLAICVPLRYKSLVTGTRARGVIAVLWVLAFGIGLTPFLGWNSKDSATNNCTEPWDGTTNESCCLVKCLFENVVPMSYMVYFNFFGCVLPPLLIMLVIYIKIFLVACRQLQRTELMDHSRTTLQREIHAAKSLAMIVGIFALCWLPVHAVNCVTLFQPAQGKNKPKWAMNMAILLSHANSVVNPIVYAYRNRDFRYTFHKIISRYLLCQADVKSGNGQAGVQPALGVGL

IC50 [1] [nM]	IC50 [2] [nM]	A2B cAMP % Inh. @10000 nM [2] [% Inh.]	SMILES
175	1210	–	COc1cc2nc(N)n3nc(C4CCC(C)N(c5cnn(C(C)(C)C(C)O)c5)C4)nc3c2cc1F (single isomer, unassigned) [Example 267, (S or R)-3-(4-((2R,5S or 2S,5R)-5-(5-amino-9-fluoro-8-methoxy-[1,2,4]triazolo[1,5-c]quinazolin-2-yl)-2-methylpiperidin-1-yl)-1H-pyrazol-1-yl)-3-methylbutan-2-ol]
0.8	8.7	–	COc1cc2nc(N)n3nc(C4CCC(C)N(c5cnn(C(C)C(C)O)c5)C4)nc3c2cc1F (single isomer, unassigned) [Example 237, (2R,3S or 2S,3R)-3-(4-((2S,5R or 2R,5S)-5-(5-amino-9-fluoro-8-methoxy-[1,2,4]triazolo[1,5-c]quinazolin-2-yl)-2-methylpiperidin-1-yl)-1H-pyrazol-1-yl)butan-2-ol]
1.5	53.1	–	COc1cc2nc(N)n3nc([C@@H]4CCCN(c5cnn(C(C)C(C)O)c5)C4)nc3c2cc1F (single isomer, unassigned) [Example 188, (2R,3R or 2S,3S)-3-(4-((R)-3-(5-amino-9-fluoro-8-methoxy-[1,2,4]triazolo[1,5-c]quinazolin-2-yl)piperidin-1-yl)-1H-pyrazol-1-yl)butan-2-ol]
15.6	2470	–	COc1cc2nc(N)n3nc(C4CC(C)CN(c5cnn(CC(C)(C)O)c5C)C4)nc3c2cc1F (single isomer, unassigned) [Example 275, 1-((4-((3S,5R or 3R,5S)-5-(5-amino-9-fluoro-8-methoxy-[1,2,4]triazolo[1,5-c]quinazolin-2-yl)-5-methylpiperidin-1-yl)-5-methyl-1H-pyrazol-1-yl)-2-methylpropan-2-ol]
20.4	–	30	COc1cc(F)cc2c1nc(N)n1nc(C3CC(C)CN(c4cnn(C(C)C(C)O)c4C)C3)nc21 (single isomer, unassigned) [Example 220, (2S,3S or 2R,3R)-3-(4-((3R,5S or 3S,5R)-3-(5-amino-9-fluoro-7-methoxy-[1,2,4]triazolo[1,5-c]quinazolin-2-yl)-5-methylpiperidin-1-yl)-5-methyl-1H-pyrazol-1-yl)butan-2-ol]
1	160	–	Cc1c(N2CC(C)CC(c3nc4c5cc(F)cc(F)c5nc(N)n4n3)C2)cnn1C(C)C(C)O (single isomer, unassigned) [Example 216, (2S,3S or 2R,3R)-3-(4-((3R,5S or 3S,5R)-3-(5-amino-7,9-difluoro-[1,2,4]triazolo[1,5-c]quinazolin-2-yl)-5-methylpiperidin-1-yl)-5-methyl-1H-pyrazol-1-yl)butan-2-ol]
3.8	56.9	–	COc1cc2nc(N)n3nc([C@@H]4CCCN(c5cnn(C(C)(C)CO)c5)C4)nc3c2cc1F [Example 151, (R)-2-(4-(3-(5-amino-9-fluoro-8-methoxy-[1,2,4]triazolo[1,5-c]quinazolin-2-yl)piperidin-1-yl)-1H-pyrazol-1-yl)-2-methylpropan-1-ol]
1	25.8	–	COc1cc(F)cc2c1nc(N)n1nc([C@@H]3CCCN(c4cnn(C(C)C(C)O)c4)C3)nc21 (single isomer, unassigned) [Example 186, (2R,3R or 2S,3S)-3-(4-((R)-3-(5-amino-9-fluoro-7-methoxy-[1,2,4]triazolo[1,5-c]quinazolin-2-yl)piperidin-1-yl)-1H-pyrazol-1-yl)butan-2-ol]
0.9	10.2	–	COc1cc(F)cc2c1nc(N)n1nc(C3CC(C)CN(c4cn(C(C)(C)CO)nc4C)C3)nc21 (single isomer, unassigned) [Example 176, 2-(4-((3S,5R or 3R,5S)-3-(5-amino-9-fluoro-7-methoxy-[1,2,4]triazolo[1,5-c]quinazolin-2-yl)-5-methylpiperidin-1-yl)-3-methyl-1H-pyrazol-1-yl)-2-methylpropan-1-ol]
0.7	70.5	–	COc1cc2nc(N)n3nc(C4CC(C)CN(c5cnn(CC(C)(C)O)c5C)C4)nc3c2cc1F (single isomer, unassigned) [Example 274, 1-((4-((3R,5S or 3S,5R)-5-(5-amino-9-fluoro-8-methoxy-[1,2,4]triazolo[1,5-c]quinazolin-2-yl)-5-methylpiperidin-1-yl)-5-methyl-1H-pyrazol-1-yl)-2-methylpropan-2-ol]
541	–	25	CC1CCC(c2nc3c4cc(F)cc(F)c4nc(N)n3n2)CN1c1cnn(CC(C)(O)CO)c1 (single isomer, unassigned) [Example 257, (S or R)-2-(4-((2S,5R or 2R,5S)-5-(5-amino-7,9-difluoro-[1,2,4]triazolo[1,5-c]quinazolin-2-yl)-2-methylpiperidin-1-yl)-1H-pyrazol-1-yl)-2-methylpropane-1,2-diol]
8.7	648	–	COc1cc(F)cc2c1nc(N)n1nc(C3CC(C)CN(c4cnn(CC(C)(C)O)c4)C3)nc21 (single isomer, unassigned) [Example 160, 1-(4-((3S,5R or 3R,5S)-3-(5-amino-9-fluoro-7-methoxy-[1,2,4]triazolo[1,5-c]quinazolin-2-yl)-5-methylpiperidin-1-yl)-1H-pyrazol-1-yl)-2-methylpropan-2-ol]
64.2	580	–	COc1cc2nc(N)n3nc(C4CCC(C)N(c5cnn(C(C)(C)C(C)O)c5)C4)nc3c2cc1F (single isomer, unassigned) [Example 266, (R or S)-3-(4-((2R,5S or 2S,5R)-5-(5-amino-9-fluoro-8-methoxy-[1,2,4]triazolo[1,5-c]quinazolin-2-yl)-2-methylpiperidin-1-yl)-1H-pyrazol-1-yl)-3-methylbutan-2-ol]
43.6	5800	–	COc1cc2nc(N)n3nc(C4CCC(C)N(c5cnn(CC6(O)CC6)c5)C4)nc3c2cc1F (single isomer, unassigned) [Example 272, 1-((4-((2S,5R or 2R,5S)-5-(5-amino-9-fluoro-8-methoxy-[1,2,4]triazolo[1,5-c]quinazolin-2-yl)-2-methylpiperidin-1-yl)-1H-pyrazol-1-yl)methyl)cyclopropan-1-ol]
1.1	32.9	–	COc1cc2nc(N)n3nc([C@H]4C[C@@H](C)CN(c5cnn(CC(C)(C)O)c5)C4)nc3c2cc1F (single isomer, unassigned) [Example 158, 1-(4-((3S,5R or 3R,5S)-3-(5-amino-9-fluoro-8-methoxy-[1,2,4]triazolo[1,5-c]quinazolin-2-yl)-5-methylpiperidin-1-yl)-1H-pyrazol-1-yl)-2-methylpropan-2-ol]

SMILES	IC50 [1] [nM]	IC50 [2] [nM]	A2B cAMP % Inh. @10000 nM [2] [% Inh.]
COc1cc2nc(N)n3nc([C@H]4C[C@@H](C)CN(c5cn([C@@H](C)[C@H](C)O)nc5C)C4)nc3c2cc1F (single isomer, unassigned) [Example 211, (2S,3S or 2R,3R)-3-(4-((3S,5R or 3R,5S)-3-(5-amino-9-fluoro-8-methoxy-[1,2,4]triazolo[1,5-c]quinazolin-2-yl)-5-methylpiperidin-1-yl)-3-methyl-1H-pyrazol-1-yl)butan-2-ol]	89.3	> 10000	–
